Where two headings read alike, the source gives them in different places. {Fluorescein} = fluorescein label
What was measured:
[1] = molecular target: T1, HuR protein interaction with the ARE site of Msi1 mRNA (HuR-Msi1^ARE) (Homo sapiens, UniProt Q15717); test: Fluorescence polarization (FP) assay, inhibition of HuR-Msi1 ARE interaction; format: binding; details: full-length human HuR, read-out: Ki via FP assay
T1 construct: full-length human HuR protein was produced by the KU COBRE-PSF Protein Purification Group; made in house
Source text: (§1) A fluorescence polarization (FP)-based binding assay was utilized to assess the inhibition of HuR protein interaction with the ARE site of Msi1 mRNA (“HuR-Msi1^ARE”) by compounds of interest. Briefly, full-length human HuR protein was produced by the KU COBRE-PSF Protein Purification Group and Bcl2, Msi1 and XIAP mRNA sequences (16 nt) were designed based on literature precedent^23,24,31,32. Fluorescein labeled RNAs were purchased from Dharmacon with the following sequences: Msi1 RNA: 5′-GCUUUUAUUUAUUUUG-3′-fluorescein; Bcl-2 RNA: 5′-AAAAGAUUUAUUUAUU-3′-fluorescein; XIAP RNA: 5′-UAGUUAUUUUUA UGUC-3′-fluorescein, and a 16-nt degenerative RNA with 3′-fluorescein label was used as a negative control.

HCT116 β/w = test: Cytotoxicity assay (WST-8); format: cell-based; details: Homo sapiens, HCT-116, 96 h incubation
Protocol: (§2) Cells were seeded in 96-well culture plates (5,000 cells/well) and treated with titrated compounds in triplicate. After 96 h incubation, cell growth medium was removed and proliferation reagent WST-8 (Sigma) was added to each well and incubated at 37° C. for 1-3 h. Absorbance was then measured with a plate reader at 450 nm with correction at 650 nm. The results were expressed as the percentage of absorbance of treated wells versus that of vehicle control.

MIAPaCa-2 = test: Cytotoxicity assay (WST-8); format: cell-based; details: Homo sapiens, MIA PaCa-2, 96 h incubation
Protocol: as §2

MDA-MB-231 = test: Cytotoxicity assay (WST-8); format: cell-based; details: Homo sapiens, read-out: Cytotoxicity (IC50, μM) MDA-MB-231
Protocol: as §2, with “The cytotoxicity of the tested compounds in several cancer cell lines (HCT116 β/w, MIAPaCa-2, and MDA-MB-231) was determined by a cytotoxicity assay, where the results are provided in Table 1. Cells” for “Cells”, “control. IC50, the drug concentration causing 50% growth inhibition, was calculated via sigmoid curve fitting using GraphPad Prism 5.0. […]” for “control.”

[2] = system: docetaxel-resistant MDA-MB-231 cell line (231-TR); test: Cytotoxicity assay, docetaxel-resistant cells; format: cell-based; details: 231-TR vs MDA-MB-231
Protocol: (§3) To further mimic clinical conditions and assess overcoming acquired chemo-resistance via compounds of the present technology, docetaxel-resistant and doxorubicin-resistant MDA-MB-231 cells were generated by continuous exposure of cells to increasing concentrations of docetaxel (TXT) or doxorubicin (DXR). Cytotoxicity assays were then performed to assess the chemo-resistance of the produced cell lines as well as assess the sensitivity of such chemo-resistant cell lines to compounds of the present technology.
(§4) Cytotoxicity assays were then performed utilizing concentrations of KH-3 that were below the lethal threshold for the compound (a “sub-lethal concentration”) in combination with docetaxel or doxorubicin to determine whether compounds of the present technology may sensitize cancer cell lines (including chemo-resistance cancer cell lines) to chemotherapy. FIGS. 11A-11B illustrate that sub-lethal concentrations of KH-3 sensitizes both MDA-MB-231 cells and docetaxel-resistant 231-TR cells to docetaxel treatment (FIGS. 11A-11B), and FIGS. 11C-D illustrate that sub-lethal concentrations of KH-3 sensitizes both MDA-MB-231 cells and doxorubicin-resistant 231-DR cells to doxorubicin treatment (FIGS. 11C-11D).

[3] = system: Musashi 2 (Msi2) mRNA in PC3 cells; test: mRNA level of HuR target after chemotherapy; format: cell-based
Source text: FIGS. 1A-1F provide the results of studies illustrating RNA-binding protein Hu antigen R (HuR) is involved in chemo/radiation-induced tumor response, according to the working examples. […] HuR knock-down by siRNA sensitized cancer cells to X-ray radiation, with an enhancement ratio (ER) of 1.5 versus the negative control (NC) siRNA (FIG. 1F).

[4] = system: doxorubicin-resistant MDA-MB-231 cell line (231-DR); test: Cytotoxicity assay, doxorubicin-resistant cells; format: cell-based; details: 231-DR vs MDA-MB-231
Protocol: as §3, §4

[5] = molecular target: T2, full-length human HuR protein (Homo sapiens, UniProt Q15717); test: FP-based binding of fluorescein-labeled RNAs to HuR; details: 16 nt RNA oligo, FITC-RNA 2 nM; read-out: Kd of HuR binding with fluorescein-labeled target RNA
T2 construct: full-length human HuR protein was produced by the KU COBRE-PSF Protein Purification Group; made in house
Protocol: FIG. 3 provides the results of a fluorescence polarization (FP)-based binding assay, illustrating that full length HuR binds to FITC-Bcl-2, Msi1, and XIAP RNA but not to scrambled oligo-FITC, according to the working examples. The concentration of FITC-RNA used in the assay is 2 nM.
as §1

[6] = system: HuR target mRNAs (Bcl-2, XIAP, Msi1, HuR) in HCT-116 β/w cells; test: mRNA stability by qRT-PCR after co-treatment with Actinomycin D; format: cell-based; set-up: dose or concentration left out as unconfirmed
Protocol: HuR target mRNA levels were measured by qRT-PCR.
(§5) As HuR promotes stability of its target mRNAs, it is expected that HuR-inhibitors will block HuR function and shorten the half-life (t1/2) of target mRNAs. mRNA stability was determined via quantitative real-time PCR (qRT-PCR) after co-treatment of compounds of the present technology and Actinomycin D (a transcription inhibitor). […] Because HuR also increases the translation of target mRNAs, the effect of compounds of the present technology was tested on protein levels of HuR targets by Western blot analysis.

[7] = system: protein levels of HuR targets in HCT-116 β/w cells; test: Western blot of HuR targets; format: cell-based
Protocol: as §5

[8] = system: protein levels of HuR targets in MDA-MB-231 cells; test: Western blot of HuR targets; format: cell-based
Protocol: as §5

[9] = system: PARP cleavage, LC3 conversion, and RIP3 activation; test: Western blot of cell death mechanisms; format: cell-based
Source text: FIGS. 8A-8C provide the results of Western blot analysis illustrating that KH-3 decreases the protein levels of HuR targets in HCT-116 β/w cells (FIG. 8A) and MDA-MB-231 cells (FIG. 8B) and is involved in cell death mechanisms by inducing PARP cleavage, LC3 conversion, and RIP3 activation (FIG. 8C), according to the working examples.
as §5

[10] = MDA-MB-231, 96 h incubation, WST-8

T1 sequence (Q15717 whole entry): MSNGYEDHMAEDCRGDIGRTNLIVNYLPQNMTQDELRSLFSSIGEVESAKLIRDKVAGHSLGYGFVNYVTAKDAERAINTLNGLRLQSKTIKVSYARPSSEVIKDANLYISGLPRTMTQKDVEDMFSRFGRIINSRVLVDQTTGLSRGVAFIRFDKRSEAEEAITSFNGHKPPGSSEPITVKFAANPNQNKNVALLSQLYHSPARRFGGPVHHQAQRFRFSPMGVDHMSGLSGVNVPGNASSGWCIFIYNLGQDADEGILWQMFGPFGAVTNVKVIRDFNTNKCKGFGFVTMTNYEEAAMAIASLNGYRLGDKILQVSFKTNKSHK
T2 sequence (Q15717 whole entry): as above

Compound	Ki [1] [µM]	IC50 (HCT116 β/w) [µM]	IC50 (MIAPaCa-2) [µM]	IC50 (MDA-MB-231; [10]) [µM]	also measured
CC(C)(C)c1ccc(S(=O)(=O)Nc2ccc3sc(/C=C/C(=O)O)cc3c2)cc1 [KH-3A, (E)-3-(5-(4-(tert-butyl)phenylsulfonamido)benzo[b]thiophen-2-yl)acrylic acid]	1.38	> 100	> 100	> 100	
CC(=O)O[C@@]12CO[C@@H]1C[C@H](O)[C@@]1(C)C(=O)[C@H](O)C3=C(C)[C@@H](OC(=O)[C@H](O)[C@@H](NC(=O)OC(C)(C)C)c4ccccc4)C[C@@](O)([C@@H](OC(=O)c4ccccc4)[C@H]21)C3(C)C [docetaxel]					IC50 in 231-TR compared to parental cell line [2]: more than 8 fold; mRNA levels of HuR target Musashi 2 (Msi2) [3]: increased the mRNA levels
Cc1ccc(S(=O)(=O)Nc2ccc3sc(/C=C/C(=O)NO)cc3c2)cc1 [KH-2]	5.55	1.42	2.33		IC50 (MDA-MB-231; MDA-MB-231, 96 h): 1.46 µM
CCOC(=O)/C=C/c1cc2cc(NS(=O)(=O)c3c(C)cc(C)cc3C)ccc2s1 [KH-4B, (E)-ethyl 3-(5-(2,4,6-trimethylphenylsulfonamido)benzo[b]thiophen-2-yl)acrylate]	> 20	91.4	30.4	> 100	
O=C(/C=C/c1cc2cc(NS(=O)(=O)c3ccccc3)ccc2s1)NO [KH-1]	9.2	0.86	1.21		IC50 (MDA-MB-231; MDA-MB-231, 96 h): 0.98 µM
COc1cccc2c1C(=O)c1c(O)c3c(c(O)c1C2=O)C[C@@](O)(C(=O)CO)C[C@@H]3O[C@H]1C[C@H](N)[C@H](O)[C@H](C)O1 [doxorubicin]					IC50 in 231-DR compared to parental cell line [4]: about 10 fold
O=C(O)/C=C/c1cc2cc(NS(=O)(=O)c3ccccc3)ccc2s1 [KH-1A, (E)-3-(5-(phenylsulfonamido)benzo[b]thiophen-2-yl)acrylic acid]	5.82	> 100	> 100	> 100	
XIAP RNA: Fluorescein labeled 16 nt RNA 5′-UAGUUAUUUUUA UGUC-3′-fluorescein (UAGUUAUUUUUAUGUC; RNA, 3' {Fluorescein}, backbone not given here)					Kd [5]: 0.0035 µM
Cc1cc(C)c(S(=O)(=O)Nc2ccc3sc(/C=C/C(=O)O)cc3c2)c(C)c1 [KH-4A, (E)-3-(5-(2,4,6-trimethylphenylsulfonamido)benzo[b]thiophen-2-yl)acrylic acid]	2.92	> 100	> 100	> 100	
CCOC(=O)/C=C/c1cc2cc(NS(=O)(=O)c3ccc(C)cc3)ccc2s1 [KH-2B, (E)-ethyl 3-(5-(4-methylphenylsulfonamido)benzo[b]thiophen-2-yl)acrylate]	> 20	40.1	39.5	43	
Cc1ccc(S(=O)(=O)Nc2ccc3sc(/C=C/C(=O)O)cc3c2)cc1 [KH-2A, (E)-3-(5-(4-methylphenylsulfonamido)benzo[b]thiophen-2-yl)acrylic acid]	2.92	> 100	> 100	> 100	
CCOC(=O)/C=C/c1cc2cc(NS(=O)(=O)c3ccc(C(C)(C)C)cc3)ccc2s1 [KH-3B, (E)-ethyl 3-(5-(4-(tert-butyl)phenylsulfonamido)benzo[b]thiophen-2-yl)acrylate]	> 20	68.2	45.5	45.6	stability of HuR target mRNAs (Bcl-2, XIAP, Msi1, HuR mRNA) [6]: not exhibited; protein levels of HuR targets [7]: not exhibited; protein levels of HuR targets [8]: not exhibited; cell death mechanisms (PARP cleavage, LC3 conversion, RIP3 activation) [9]: not exhibited
Bcl-2 RNA: Fluorescein labeled 16 nt RNA 5′-AAAAGAUUUAUUUAUU-3′-fluorescein (RNA, 3' {Fluorescein}, backbone not given here)					Kd [5]: 0.0063 µM
Cc1cc(C)c(S(=O)(=O)Nc2ccc3sc(/C=C/C(=O)NO)cc3c2)c(C)c1 [KH-4]	1.41				IC50 (MDA-MB-231; MDA-MB-231, 96 h): 1.04 µM
CCOC(=O)/C=C/c1cc2cc(NS(=O)(=O)c3ccccc3)ccc2s1 [KH-1B, (E)-ethyl 3-(5-(phenylsulfonamido)benzo[b]thiophen-2-yl)acrylate]	> 20	35.6	37.6	41.8	
Msi1 RNA: Fluorescein labeled 16 nt RNA 5′-GCUUUUAUUUAUUUUG-3′-fluorescein (RNA, 3' {Fluorescein}, backbone not given here)					Kd [5]: 0.002 µM
